The results in this text go back to patent US9120807B2, “Thienopyrimidine compounds” (Vernalis (R&D) Ltd., priority 2007, dated 2015).

Molecules are shown by their SMILES.

What all share (type): cell-based
Assay [1] deals with human adenosine A2B receptors (Homo sapiens (Human), UniProt P29275). Description: FLIPR calcium flux functional assay, A2B receptor. The conditions noted are these: mammalian cell line expressing human A2B. The procedure:
(§1) The use of a Fluorometric Imaging Plate Reader (FLIPR) to measure calcium flux in Adenosine-receptor expressing cells is a well-established technique. In this assay calcium flux is triggered by receptor activation and measured through the fluorescence of an incorporated calcium-sensitive dye. The potencies shown were determined using expressed human adenosine A2B receptors in mammalian cell lines. Selectivity values were obtained by using mammalian cell lines expressing the human adenosine A1, A2A and A3 receptors. Compound potency was determined from dose response curves and is reported as an IC50 value.
(§2) All examples were tested for activity in the functional assay described above.
(A change in cytosolic calcium serves as a functional read-out for many receptors and channels.)

Assay [2] deals with human adenosine A1 receptor (Homo sapiens (Human), UniProt P30542). The experiment in a line: FLIPR calcium flux functional assay, A1 receptor. As to conditions: for Kb: mammalian cell line expressing human A1, calcium flux; for A1/A2b: selectivity ratio of Kb values. As for the experimental part:
as §1, §2

The target of assay [3] is human adenosine A2A receptor (Homo sapiens (Human), UniProt P29274). Description: FLIPR calcium flux functional assay, A2A receptor. As to conditions: for Kb: mammalian cell line expressing human A2A, calcium flux; for A2a/A2b: selectivity ratio of Kb values. As for the experimental part:
as §1, §2

The target in assay [4] is human adenosine A3 receptor (Homo sapiens (Human), UniProt P0DMS8). Description: FLIPR calcium flux functional assay, A3 receptor. As to conditions: for Kb: mammalian cell line expressing human A3, calcium flux; for A3/A2b: selectivity ratio of Kb values. As for the experimental part: as §1, §2
human adenosine A3 receptor, sequence (P0DMS8 whole entry): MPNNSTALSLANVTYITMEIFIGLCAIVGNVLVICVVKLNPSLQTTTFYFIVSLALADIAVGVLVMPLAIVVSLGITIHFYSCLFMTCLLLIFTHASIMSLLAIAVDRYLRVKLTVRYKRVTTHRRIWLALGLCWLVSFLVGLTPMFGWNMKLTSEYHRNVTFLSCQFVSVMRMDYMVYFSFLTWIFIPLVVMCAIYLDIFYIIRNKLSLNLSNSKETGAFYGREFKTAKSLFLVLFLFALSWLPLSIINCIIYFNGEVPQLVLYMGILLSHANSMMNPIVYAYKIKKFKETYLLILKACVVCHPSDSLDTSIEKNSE

human adenosine A2A receptor, sequence (P29274 whole entry): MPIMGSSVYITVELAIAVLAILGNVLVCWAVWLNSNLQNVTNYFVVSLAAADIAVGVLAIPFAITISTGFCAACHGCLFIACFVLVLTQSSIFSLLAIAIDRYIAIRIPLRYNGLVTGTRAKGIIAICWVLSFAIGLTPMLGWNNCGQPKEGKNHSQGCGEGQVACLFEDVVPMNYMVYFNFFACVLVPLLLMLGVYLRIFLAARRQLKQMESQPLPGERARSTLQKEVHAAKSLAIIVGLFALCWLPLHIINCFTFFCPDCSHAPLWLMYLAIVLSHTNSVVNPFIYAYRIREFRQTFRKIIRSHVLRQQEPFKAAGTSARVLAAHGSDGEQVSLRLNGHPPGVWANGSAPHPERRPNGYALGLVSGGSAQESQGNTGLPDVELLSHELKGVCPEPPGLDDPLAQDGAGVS
human adenosine A1 receptor, sequence (P30542 whole entry): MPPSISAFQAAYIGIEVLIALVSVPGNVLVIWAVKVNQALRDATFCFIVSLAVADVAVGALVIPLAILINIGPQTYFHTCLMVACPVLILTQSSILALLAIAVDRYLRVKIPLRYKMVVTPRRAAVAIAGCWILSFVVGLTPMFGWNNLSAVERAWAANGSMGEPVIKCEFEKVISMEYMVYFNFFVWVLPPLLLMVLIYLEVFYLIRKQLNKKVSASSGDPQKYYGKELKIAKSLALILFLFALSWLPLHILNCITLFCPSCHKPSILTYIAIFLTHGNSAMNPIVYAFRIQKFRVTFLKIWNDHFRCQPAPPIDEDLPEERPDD
human adenosine A2B receptors, sequence (P29275 whole entry): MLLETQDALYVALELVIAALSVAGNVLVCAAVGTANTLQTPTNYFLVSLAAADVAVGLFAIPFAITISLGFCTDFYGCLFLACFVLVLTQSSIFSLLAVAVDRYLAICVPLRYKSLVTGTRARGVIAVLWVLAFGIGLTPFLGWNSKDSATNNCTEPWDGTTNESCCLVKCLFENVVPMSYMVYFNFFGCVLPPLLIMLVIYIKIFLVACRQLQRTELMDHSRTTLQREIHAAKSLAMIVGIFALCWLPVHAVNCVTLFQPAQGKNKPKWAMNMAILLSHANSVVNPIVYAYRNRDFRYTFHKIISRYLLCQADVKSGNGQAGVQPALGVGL

Turning to `CNc1cc2nc(NCc3cccnc3)nc(C(=O)c3cccs3)c2s1` [Example 6, {6-Methylamino-2-[(pyridin-3-ylmethyl)-amino]-thieno[3,2-d]pyrimidin-4-yl}-thiophen-2-yl-methanone], the Kb in assay [1] amounted to 1.4 nM. Also, in assay [2], the Kb was found to be 57.6 nM and the A1/A2b came to 41. Moreover, in assay [3], the Kb came to 277 nM and the A2a/A2b is 198. In assay [4], the Kb came to 22.9 nM and the A3/A2b came to 16.
On to `CN(C)c1cc2nc(NCc3cccnc3)nc(C(=O)c3cccs3)c2s1` [Example 7, {6-dimethylamino-2-[(pyridine-3-ylmethyl)-amino]-thieno[3,2-d]pyrimidin-4-yl}-thiophen-2-yl-methanone], for which the Kb came out at 6.5 nM in assay [1], 19.4 nM in assay [2], 318 nM in assay [3] and 130 nM in assay [4]. The A1/A2b in assay [2] worked out at 3. In addition, the A2a/A2b in assay [3] was 49. In addition, the A3/A2b in assay [4] is 20.
With `CCNc1cc2nc(NCc3cccnc3)nc(C(=O)c3cccs3)c2s1` [Example 8, {6-Ethylamino-2-[(pyridin-3-ylmethyl)-amino]-thieno[3,2-d]pyrimidin-4-yl}-thiophen-2-yl-methanone], the Kb in assay [1] was found to be 6.7 nM. For the same compound, in assay [2], the Kb is 118 nM and the A1/A2b amounted to 18. In assay [3], the Kb worked out at 726 nM and the A2a/A2b came to 109. For the same compound, in assay [4], the Kb turned out to be 37.3 nM and the A3/A2b is given as 6.
Consider `Nc1cc2nc(NCc3cccnc3)nc(C(=O)c3cccs3)c2s1` [Example 9, {6-Amino-2-[(pyridin-3-ylmethyl)-amino]-thieno[3,2-d]pyrimidin-4-yl}-thiophen-2-yl-methanone], for which the Kb in assay [1] was found to be 7.1 nM; in assay [2], 1100 nM; in assay [3], 1400 nM; in assay [4], 233 nM. In addition, the A1/A2b in assay [2] was 155. Moreover, in assay [3], the A2a/A2b is listed as greater than 196. The A3/A2b in assay [4] was found to be 33.
For the compound `C=Cc1cc2nc(NCc3cccnc3)nc(C(=O)c3cccs3)c2s1` [Example 10, {2-[(Pyridin-3-ylmethyl)-amino]-6-vinyl-thieno[3,2-d]pyrimidin-4-yl}-thiophen-2-yl-methanone], the Kb in assay [1] was determined as 52.3 nM. Further, in assay [2], the Kb was 161 nM and the A1/A2b was determined as 3. For the same compound, in assay [3], the Kb was 3750 nM and the A2a/A2b is greater than 71. In assay [4], the Kb was found to be 747 nM and the A3/A2b is 14.
Turning to `CCc1cc2nc(NCc3cccnc3)nc(C(=O)c3cccs3)c2s1` [Example 11, {6-Ethyl-2-[(pyridin-3-ylmethyl)-amino]-thieno[3,2-d]pyrimidin-4-yl}-thiophen-2-yl-methanone], in assay [1], the Kb was 36.7 nM. Besides, in assay [2], the Kb was 216 nM and the A1/A2b stood at 6. In assay [3], the Kb was determined as 3750 nM and the A2a/A2b is greater than 102. Also, in assay [4], the Kb is 361 nM and the A3/A2b is listed as 10.
On to `O=C(c1cccs1)c1nc(NCc2cccnc2)nc2cc(NCc3cccnc3)sc12` [Example 12, {6-(3-picolylamino)-2-[(pyridin-3-ylmethyl)-amino]-thieno[3,2-d]pyrimidin-4-yl}-thiophen-2-yl-methanone], for which, in assay [1], the Kb came out at 68.9 nM. Besides, in assay [2], the Kb came to 256 nM and the A1/A2b stood at 4. Further, in assay [3], the Kb worked out at 828 nM and the A2a/A2b was 12. In assay [4], the Kb worked out at 308 nM and the A3/A2b was determined as 4.
